Measurements from article PMC6009955, “Synthesis of new pyridothienopyrimidinone and pyridothienotriazolopyrimidine derivatives as pim-1 inhibitors” (Journal of Enzyme Inhibition and Medicinal Chemistry, 2017).
Where two headings read alike, the source gives them in different places.

Tests used:
pim-1 = settings: cited from earlier work
pim-2 = settings: cited from earlier work
[1] = molecular target: T1, Human proto-oncogene serine/threonine-protein kinase pim-1 (PIM1) (Homo sapiens, UniProt P11309); test: Pim-1 kinase inhibitory activity (PIM1 ELISA kit); assay type: biochemical; settings: for inhibition at 25 µM: read-out: % Inhibition at 25µM; for IC50: tested at 0.2, 1, 5 and 25 µM
T1 construct: purchased MBS7573
Description: The kinase inhibitory activity of the synthesised compounds was determined using Human proto-oncogene serine/threonine-protein kinase pim-1 (PIM1) ELISA Kit (catalog #MBS7573). All the compounds were tested for their inhibitory activity against pim-1 kinase at 0.2, 1, 5 and 25 µM using Staurosporine as a reference standard.

[2] = tested on: human breast adenocarcinoma (MCF7); test: In vitro cytotoxic activity, MTT method, MCF7; assay type: cell-based; settings: MCF-7, MTT, 48 h incubation, means of three experiments
Description: Cell line cells were obtained from American Type Culture Collection (ATCC, Manassas, VA). The cell lines used in this study were human breast adenocarcinoma (MCF7) and human colon adenocarcinoma (HCT116). The cells were cultured using DMEM (Invitrogen/Life Technologies) supplemented with 10% FBS (Hyclone), 10 µg/mL insulin (Sigma) and 1% penicillin-streptomycin. All of the other chemicals and reagents were from Sigma or Invitrogen. […] The culture medium was removed to a centrifuge tube. The cell layer was rinsed with 0.25% (w/v) Trypsin 0.53 mM EDTA solution to remove all traces of serum which contains Trypsin inhibitor. Then, 2–3 ml of Trypsin EDTA solution was added and the cells were observed under an inverted microscope until the cell layer is dispersed (usually within 5–15 min.). A volume of 6 to 8 ml of complete growth medium was added and the cells were aspirated by gently pipetting. The cell suspension was transferred to the centrifuge tube with the culture medium and centrifuged at approximately 125 ×g for 5 to 10 min. The supernatant was discarded and the cells were suspended in fresh growth medium then incubated at 37 °C for 24 h. After treatment of the cells with the serial concentrations of the test compounds or the control Staurosporine in DMSO (at concentrations of 200, 100, 10, 1 and 0.1 µM), incubation was carried out for 48 h at 37 °C, then the plates were examined under the inverted microscope and proceeded for the MTT assay. The MTT method of monitoring in vitro cytotoxicity is well suited for use with multiwell plates. For best results, cells in the log phase of growth should be employed and final cell number should not exceed 10^6 cells/cm^2. Each test should include a blank containing complete medium without cells. Cell cultures were removed from the incubator into laminar flow hood. Each vial of MTT [M-5655] was reconstituted to be used with 3 ml of medium or balanced salt solution without phenol red and serum and the reconstituted MTT was added in an amount equal to 10% of the culture medium volume. Then the cultures were returned to the incubator for 2–4 h depending on the cell type and the maximum cell density. After the incubation period, the cultures were removed from incubator and the resulting formazan crystals were dissolved by adding an amount of MTT solvent (solubilisation solution) [M-8910] equal to the original culture medium volume. Gentle mixing in a gyratory shaker enhanced dissolution. Occasionally pipetting up and down [trituration] may be required to completely dissolve the MTT formazan crystals. The absorbance was measured at a wavelength of 450 nm using Bioline ELIZA reader. The background absorbance of the multiwell plates was measured at 690 nm and subtracted from the 450 nm measurement. The results are shown in Table 2 and graphically represented in Figure 5. […] The results in terms of IC50 in µM are given in Table 2 and represented graphically in Figure 5.

[3] = tested on: human colon adenocarcinoma (HCT116); test: In vitro cytotoxic activity, MTT method, HCT116; assay type: cell-based; settings: 48 h incubation, means of three experiments
Description: Cell line cells were obtained from American Type Culture Collection (ATCC, Manassas, VA). The cell lines used in this study were human breast adenocarcinoma (MCF7) and human colon adenocarcinoma (HCT116). The cells were cultured using DMEM (Invitrogen/Life Technologies) supplemented with 10% FBS (Hyclone), 10 µg/mL insulin (Sigma) and 1% penicillin-streptomycin. All of the other chemicals and reagents were from Sigma or Invitrogen. […] The culture medium was removed to a centrifuge tube. The cell layer was rinsed with 0.25% (w/v) Trypsin 0.53 mM EDTA solution to remove all traces of serum which contains Trypsin inhibitor. Then, 2–3 ml of Trypsin EDTA solution was added and the cells were observed under an inverted microscope until the cell layer is dispersed (usually within 5–15 min.). A volume of 6 to 8 ml of complete growth medium was added and the cells were aspirated by gently pipetting. The cell suspension was transferred to the centrifuge tube with the culture medium and centrifuged at approximately 125 ×g for 5 to 10 min. The supernatant was discarded and the cells were suspended in fresh growth medium then incubated at 37 °C for 24 h. After treatment of the cells with the serial concentrations of the test compounds or the control Staurosporine in DMSO (at concentrations of 200, 100, 10, 1 and 0.1 µM), incubation was carried out for 48 h at 37 °C, then the plates were examined under the inverted microscope and proceeded for the MTT assay. The MTT method of monitoring in vitro cytotoxicity is well suited for use with multiwell plates. For best results, cells in the log phase of growth should be employed and final cell number should not exceed 10^6 cells/cm^2. Each test should include a blank containing complete medium without cells. Cell cultures were removed from the incubator into laminar flow hood. Each vial of MTT [M-5655] was reconstituted to be used with 3 ml of medium or balanced salt solution without phenol red and serum and the reconstituted MTT was added in an amount equal to 10% of the culture medium volume. Then the cultures were returned to the incubator for 2–4 h depending on the cell type and the maximum cell density. After the incubation period, the cultures were removed from incubator and the resulting formazan crystals were dissolved by adding an amount of MTT solvent (solubilisation solution) [M-8910] equal to the original culture medium volume. Gentle mixing in a gyratory shaker enhanced dissolution. Occasionally pipetting up and down [trituration] may be required to completely dissolve the MTT formazan crystals. The absorbance was measured at a wavelength of 450 nm using Bioline ELIZA reader. The background absorbance of the multiwell plates was measured at 690 nm and subtracted from the 450 nm measurement. […]

[4] = previous work, 2-aryl-2,3-dihydro derivatives ref 9, read-out: IC50 pim-1 inhibition

T1 sequence (P11309 whole entry): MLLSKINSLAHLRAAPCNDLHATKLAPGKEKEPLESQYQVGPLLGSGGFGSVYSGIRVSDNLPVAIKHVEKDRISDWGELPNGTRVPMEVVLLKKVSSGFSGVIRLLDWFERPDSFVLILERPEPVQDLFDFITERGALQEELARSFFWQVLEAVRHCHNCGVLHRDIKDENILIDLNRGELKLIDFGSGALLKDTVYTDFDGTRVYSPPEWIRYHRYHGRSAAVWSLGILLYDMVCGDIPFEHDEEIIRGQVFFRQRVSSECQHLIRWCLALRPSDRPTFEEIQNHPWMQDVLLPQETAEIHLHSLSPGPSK

Row | melting point [°C] | inhibition at 25 µM ([1]; pim-1 kinase, 25 µM) [%] | IC50 ([1]; pim-1 kinase) [nM] | SMILES | further results
1 | > 300 | 96 | 60 | Cc1nc2sc3c(c2c(C)c1Br)NC(c1ccc(Br)cc1)NC3=O (centres unmarked) [Compound 3b, 8-Bromo-2-(4-bromophenyl)-7,9-dimethyl-2,3-dihydropyrido[3′,2′:4,5]thieno[3,2-d]pyrimidin-4(1H)-one] | IC50 ([2]; Homo sapiens, MCF7, 48 h): 1840 ± 120 nM; IC50 ([3]; Homo sapiens, HCT-116, 48 h): 2740 ± 150 nM
2 | 290 to 291 | 81 | 1340 | Cc1nc2sc3c(c2c(C)c1Br)NC(c1ccc(O)cc1O)NC3=O (centres unmarked) [Compound 3d, 8-Bromo-2-(2,4-dihydroxyphenyl)-7,9-dimethyl-2,3-dihydropyrido[3′,2′:4,5]thieno[3,2-d]pyrimidin-4(1H)-one] | –
3 | > 300 | 89 | 1000 | Cc1nc2sc3c(c2c(C)c1Br)NC(c1ccc(F)cc1)NC3=O (centres unmarked) [Compound 3f, 8-Bromo-2-(4-fluorophenyl)-7,9-dimethyl-2,3-dihydropyrido[3′,2′:4,5]thieno[3,2-d]pyrimidin-4(1H)-one] | –
4 | 280 to 281 | 95 | 100 | Cc1nc2sc3c(c2c(C)c1Br)NC(c1ccsc1)NC3=O (centres unmarked) [Compound 3j, 8-Bromo-7,9-dimethyl-2-(thiophen-3-yl)-2,3-dihydropyrido[3′,2′:4,5]thieno[3,2-d]pyrimidin-4(1H)-one] | IC50 ([2]; Homo sapiens, MCF7, 48 h): < 500 nM; IC50 [2]: 310 ± 20 nM; IC50 ([3]; Homo sapiens, HCT-116, 48 h): 4820 ± 210 nM
5 | 277 to 278 | 81 | 1080 | Cc1nc2sc3c(ncn4ncnc34)c2c(C)c1Br [Compound 6, 8-bromo-7,9-dimethylpyrido[3′,2′:4,5]thieno[2,3-e][1,2,4]triazolo[1,5-c]pyrimidine] | –
6 | – | 76 | 1760 | Cc1nc2c3sc4nc(C)c(Br)c(C)c4c3ncn2n1 [Compound 7a, 8-Bromo-2,7,9-trimethylpyrido[3′,2′:4,5]thieno[2,3-e][1,2,4]triazolo[1,5-c]pyrimidine] | –
7 | 199 to 200 | 93 | 80 | Cc1nc2sc3c(ncn4nc(C(F)(F)F)nc34)c2c(C)c1Br [Compound 7b, 8-Bromo-7,9-dimethyl-2-(trifluoromethyl)pyrido[3′,2′:4,5]thieno[2,3-e][1,2,4]triazolo[1,5-c]pyrimidine] | IC50 ([2]; Homo sapiens, MCF7, 48 h): 4620 ± 140 nM; IC50 [3]: 650 ± 40 nM; IC50 ([3]; Homo sapiens, HCT-116, 48 h): < 1000 nM
8 | 198 to 199 | 95 | 100 | CCOC(=O)Cc1nc2c3sc4nc(C)c(Br)c(C)c4c3ncn2n1 [Compound 8, ethyl 2-(8-bromo-7,9-dimethylpyrido[3′,2′:4,5]thieno[2,3-e][1,2,4]triazolo[1,5-c]pyrimidin-2-yl)acetate] | IC50 ([2]; Homo sapiens, MCF7, 48 h): < 500 nM; IC50 [2]: 410 ± 30 nM
9 | > 300 | 88 | 520 | Cc1nc2sc3c(=N)n(N=Cc4ccc(Br)cc4)cnc3c2c(C)c1Br [Compound 9a, 8-Bromo-N-(4-bromobenzylidene)-4-imino-7,9-dimethylpyrido[3′,2′:4,5]thieno[3,2-d]pyrimidin-3(4H)-amine] | –
10 | > 300 | 89 | 220 | Cc1nc2sc3c(=N)n(N=Cc4ccccc4C(F)(F)F)cnc3c2c(C)c1Br [Compound 9b, 8-Bromo-4-imino-7,9-dimethyl-N-(2-(trifluoromethyl)benzylidene)pyrido[3′,2′:4,5]thieno[3,2-d]pyrimidin-3(4H)-amine] | –

More lines, now with the values behind:

Row | SMILES | melting point [°C] | inhibition at 25 µM ([1]; pim-1 kinase, 25 µM) [%] | IC50 ([1]; pim-1 kinase) [nM] | further results
11 | O=C(O)c1ccc2c(c1)nc(Nc1cccc(Cl)c1)c1ccncc12 [CX-4595] | – | – | – | IC50 (pim-1; read-out: IC50 (pim-1)): 48 nM; IC50 (pim-2): 186 nM
12 | Cc1nc2sc3c(c2c(C)c1Br)NC(c1ccc(OCc2ccccc2)cc1)NC3=O (centres unmarked) [Compound 3a, 2-(4-(Benzyloxy)phenyl)-8-bromo-7,9-dimethyl-2,3-dihydropyrido[3′,2′:4,5]thieno[3,2-d]pyrimidin-4(1H)-one] | 255 to 256 | 83 | 960 | –
13 | Cc1nc2sc3c(c2c(C)c1Br)NC(c1ccc(Cl)cc1)NC3=O (centres unmarked) [Compound 3c, 8-Bromo-2-(4-chlorophenyl)-7,9-dimethyl-2,3-dihydropyrido[3′,2′:4,5]thieno[3,2-d]pyrimidin-4(1H)-one] | > 300 | 92 | 140 | IC50 ([2]; Homo sapiens, MCF7, 48 h): < 500 nM; IC50 [2]: 390 ± 70 nM
14 | Cc1nc2sc3c(c2c(C)c1Br)NC(c1ccc(O)c(O)c1)NC3=O (centres unmarked) [Compound 3e, 8-Bromo-2-(3,4-dihydroxyphenyl)-7,9-dimethyl-2,3-dihydropyrido[3′,2′:4,5]thieno[3,2-d]pyrimidin-4(1H)-one] | – | 93 | 60 | –
15 | COc1cc(C2NC(=O)c3sc4nc(C)c(Br)c(C)c4c3N2)ccc1O (centres unmarked) [Compound 3g, 8-Bromo-2-(4-hydroxy-3-methoxyphenyl)-7,9-dimethyl-2,3-dihydropyrido[3′,2′:4,5]thieno[3,2-d]pyrimidin-4(1H)-one] | – | 92 | 80 | IC50 ([2]; Homo sapiens, MCF7, 48 h): < 500 nM; IC50 [2]: 460 ± 90 nM
16 | COc1ccc(C2NC(=O)c3sc4nc(C)c(Br)c(C)c4c3N2)cc1 (centres unmarked) [Compound 3h, 8-Bromo-2-(4-methoxyphenyl)-7,9-dimethyl-2,3-dihydropyrido[3′,2′:4,5]thieno[3,2-d]pyrimidin-4(1H)-one] | > 300 | 84 | 1170 | –
17 | COc1cc(C2NC(=O)c3sc4nc(C)c(Br)c(C)c4c3N2)cc(OC)c1OC (centres unmarked) [Compound 3i, 8-Bromo-7,9-dimethyl-2-(3,4,5-trimethoxyphenyl)-2,3-dihydropyrido[3′,2′:4,5]thieno[3,2-d]pyrimidin-4(1H)-one] | > 300 | 81 | 930 | –
18 | CN[C@@H]1C[C@H]2O[C@@](C)([C@@H]1OC)n1c3ccccc3c3c4c(c5c6ccccc6n2c5c31)C(=O)NC4 [Staurosporine, reference compound] | – | – | – | inhibition at 25 µM [1]: 94%
19 | Cc1nc2sc3c(c2c(C)c1Br)NC(c1ccccc1Cl)NC3=O (centres unmarked) [Va] | – | – | – | IC50 (pim-1; [4]): 1180 nM
20 | Cc1nc2sc3c(c2c(C)c1Br)NC(c1ccccc1O)NC3=O (centres unmarked) [Vb] | – | – | – | IC50 (pim-1; [4]): 1380 nM
21 | Cc1nc2sc3c(c2c(C)c1Br)NC(c1ccccc1C(F)(F)F)NC3=O (centres unmarked) [Vc] | – | – | – | IC50 (pim-1; [4]): 1970 nM
